Reference: PubChem BioAssay AID248 (DTP/NCI, 2004)
“And” between values parts separate entries of the source, which are not always exact repeats. Identical values can stand only once. Inconclusive results and toxic doses are left out. No stated cut-off is given here; in the data, active means T/C of 150% or more; inactive means T/C below 125%.

Tested on: L1210 leukemia ip in BDF1 mice, survival T/C
Assay: NCI In Vivo Anticancer Drug Screen. Data for tumor model L1210 Leukemia (intraperitoneal) in B6D2F1 (BDF1) mice
Details: endpoint: mean survival time, higher = longer survival
Outline: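 Each compound was tested against a transplantable tumor grown in mice. The endpoint was survival, with treated animals benchmarked against vehicle controls as a simple ratio.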

Measured: T/C

COc1ccc(C(=S)N(C)NC(=O)CC(=O)NN(C)C(=S)c2ccc(OC)cc2)cc1
inactive: dose: 100.0 mg/kg/injection, schedule: Q01DX009 (ip), vehicle: gum acacia 95 % of control | dose: 100.0 mg/kg/injection, schedule: Q04DX003 (ip), vehicle: gum acacia 92 % of control | dose: 200.0 mg/kg/injection, schedule: Q01DX009 (ip), vehicle: gum acacia 90 % of control | dose: 200.0 mg/kg/injection, schedule: Q04DX003 (ip), vehicle: gum acacia 95 % of control | dose: 400.0 mg/kg/injection, schedule: Q04DX003 (ip), vehicle: gum acacia 96 % of control

O=C(CC(NCc1ccccc1)C(=O)O)c1ccccc1 (centres undefined)
inactive: dose: 100.0 mg/kg/injection, schedule: Q01DX001 (ip), vehicle: saline 100 % of control | dose: 200.0 mg/kg/injection, schedule: Q01DX001 (ip), vehicle: saline 97 % of control | dose: 400.0 mg/kg/injection, schedule: Q01DX001 (ip), vehicle: saline 97 % of control

ClC(Cl)(Cl)c1cccc(C(Cl)(Cl)Cl)n1
inactive: dose: 100.0 mg/kg/injection, schedule: Q04DX003 (sc), vehicle: olive oil, sesame oil, peanut oil 97 % of control and 103 % of control | dose: 200.0 mg/kg/injection, schedule: Q04DX003 (sc), vehicle: olive oil, sesame oil, peanut oil 97 % of control and 103 % of control | dose: 400.0 mg/kg/injection, schedule: Q04DX003 (sc), vehicle: olive oil, sesame oil, peanut oil 100 % of control and 101 % of control

O=C1c2cscc2Cc2sccc21
inactive: dose: 100.0 mg/kg/injection, schedule: Q01DX001 (ip), vehicle: saline with Tween-80 95 % of control | dose: 200.0 mg/kg/injection, schedule: Q01DX001 (ip), vehicle: saline with Tween-80 92 % of control | dose: 400.0 mg/kg/injection, schedule: Q01DX001 (ip), vehicle: saline with Tween-80 88 % of control
